Series [1] relates to transcript levels originated from the P1-TP73 promoter (TAp73, ΔEx2p73 and ΔEx2/3p73). Nature of the series: qRT-PCR of P1-TP73 promoter transcripts in G144 cells. Type of series: cell-based, human. Particulars: G144, 72 h, dose dependent. The text has this: As before, all isoforms were reduced by treatment, with TAp73 and ΔEx2/3p73 being the predominant isoforms, while ΔN'p73 was barely detected (Figure 4A). Ribosomal RNA 18S was used as housekeeping control, and all expression levels were normalized to the TAp73 NT value.
A general note: Real-time PCR tracks product formation cycle by cycle.

The test system of series [2] is p73 transcripts originated from the P1 promoter (TAp73, ΔEx2p73, ΔEx2/3p73). Nature of the series: qRT-PCR of p73 transcripts from the P1 promoter in U373 cells. Type of series: cell-based, human. Particulars: U373, same conditions as screening, 18S control. Here is the method:
Expression levels of TAp73 (Figure 2C), ΔEx2p73 (Figure 2D) and ΔEx2/3p73 (Figure 2E) were determined by qRT-qPCR using 18S ribosomal RNA as housekeeping control, and all the expression values were normalized to TAp73 expression in non-treated cells (NT). […] The amino-truncated isoforms that are tumor-specific are vigorously expressed in advanced stages across a variety of highly aggressive human cancers (Knoll et al., 2011; Steder et al., 2013; George et al., 2015; Meier et al., 2016) and promote tumor initiation (Tannapfel et al., 2008) and cancer progression (Engelmann et al., 2015). Moreover, there is a somatic genomic rearrangement of TP73 that generates an oncogenic Ex2/3p73 in small cell lung cancer (George et al., 2015). BMT9 represses the activity of the P1-TP73 promoter, therefore it would be expected to downregulate the expression of any of the isoforms generated from this promoter in a given cell.

A short description of series [3]: Pharmacokinetics in plasma after intraperitoneal administration. Type of series: in vivo. Particulars: female C57BL/6 mice, i.p. 100 mg/kg. The protocol:
(§1) The Maximum Tolerated Dose (MTD) and Pharmacokinetics (PK) of BMT9 were determined after intraperitoneal administration to female C57BL/6 (~25 g) mice.
(§2) C57BL/6 female mice (9-13 weeks in age) were administered intraperitoneally with a single dose of BMT9 at 35, 50, 75, 100 or 200 mg/Kg. Total of 3 animals were used for each independent serial sampling experiment. The compound was dissolved in an appropriate vehicle (Cremophor:EtOH:H20 1:1:8). Body weight, distress and survival were monitored 1, 2, 4 hours and 8 hours post-administration and every day during the whole observation period. The MTD was set on the dose below the first dose that caused severe loss of body weight (>20%) or death of one or more animals of a dose group seven days after treatment. The MTD of BMT9 was therefore set on about […]. The concentrations of BMT9 in plasma was determined at different times per duplicate using a previously validated analytical method. The compound was injected via i.p at 100 mg/kg. Total of 3 animals were used for each independent serial sampling experiment. Blood samples were collected at 5, 15, 30 min, 1, 4, 10, 24, and 48 hours from each animal via cardiac puncture; […] withdrawn at each time point. 25 microliters of blood sample were then used for quantitative bioanalysis by HPLC-MS/MS. The fundamental pharmacokinetic parameters were obtained from the non-compartmental analysis using PK Solutions 2.0.2.

Series [4] relates to G144-GNSC cells. Nature of the series: Transcriptome comparison (DESeq2) of G144-GNSC cells after treatment. Type of series: cell-based, human. The conditions noted are these: DESeq2, p-adj<0.01, treated vs non-treated G144-GNSC. The source says: Finally, to elucidate the molecular basis of BMT9 effect on the stemness potential of the GNSCs, we compared the transcriptome of non-treated G144-GNSC cells with those after BMT9 treatment. The DESeq2 analysis identified 6163 differentially expressed genes (DEGs) with a p-adj<0.01. […] Among the found DEGs we found GSC markers like PROM1(CD133), LGR5, or SOX1 and SOX4, as well as key regulators involved in maintenance of the cancer cell stemness state like SOX9 (Wang et al., 2018)(Aldaz et al., 2020), CDC20 (Gujar et al., 2016) or AURKA, known to govern self-renewal capacity in glioma-initiating cells via stabilization/activation of β-catenin/Wnt signaling (Xia et al., 2013) and proposed, together with CCNA2, and TPX2, as ideal drug targets in GBM (Du et al., 2020). Table 3. Correlation of GNSCs transcriptomic profiles after BMT9 treatment with published gene signatures of stemness.

A short description of series [5]: Maximum Tolerated Dose after intraperitoneal administration. The conditions noted are these: mouse, in vivo, ip; female C57BL/6 mice, single intraperitoneal dose, seven days. The protocol: as §1
as §2, with “The fundamental pharmacokinetic parameters were obtained from the non-compartmental analysis using PK Solutions 2.0.2.” left out

In series [6] the test system is G144. The experiment in a line: Scratch (wound healing) assay, G144. Type of series: cell-based, human. Particulars: G144, 4.5µM, 24 h. The protocol:
The effect of BMT9 in cell migration was evaluated using scratch assays, also known as wound healing assays. Cells were seeded in culture inserts for wound healing assays (Ibidi) at a cell density of 35,000 cells/cm^2; 24 h later the insert was removed to create the wound, and fresh medium was added with the corresponding treatment. Microscopy images were acquired at the time of treatment and 24 h later, using a Leica DMI3000 phase contrast microscope. Analysis was performed using the ImageJ software (Schindelin et al., 2012) and the MRI wound healing tool plugin (Suarez-Arnedo et al., 2020). Cell-free area was measured at the two indicated time points and the wound closure percentage relative to the starting point was calculated for each well individually. This assay was performed in G144 and in G179 cells (Figure 10 B and C, respectively).

What is called MTD is the highest dose tested that stayed within the study's limit of toxicity. Lower therefore signals poorer tolerability.

For `C=C1C2CCC(C)(C3COc4c(C)c(OC)c5c(c4C3O)C(O)OC5=O)C1CCC2(C)C` (centres unmarked) [BMT9], in series [1], the “transcript levels originated from the P1-TP73 promoter (TAp73, ΔEx2p73 and ΔEx2/3p73)” value is “downregulated”. Further, the “expression levels of TAp73, ΔEx2p73 and ΔEx2/3p73” value in series [2] is on record as “reduced them all”. Besides, in series [3], the “highest concentration in the plasma” value turned out to be 7611 ng/mL, the “time at which plasma concentration reached the control levels post-administration” value was found to be 24 h and the “time of highest concentration in the plasma after injection” value amounted to 4 h. Besides, the “differentially expressed genes (DEGs)” value in series [4] is recorded as 6163. Further, the MTD at 168 h in series [5] is roughly 140 mg/kg. For the same compound, the “cell migration (wound closure)” value in series [6] is reported as “significantly impaired cell migration”.

For the origin of these results see patent publication EP4349409A1, “COMPOUNDS FOR THE MANAGEMENT OF CELL STEMNESS AND INVASION IN CANCER AND RELATED DISEASES” (Instituto Biomar S.A., priority 2022, dated 2024).
